# Assay results taken from ChEMBL document CHEMBL4393731, “Discovery of fused bicyclic derivatives of 1H-pyrrolo[1,2-c]imidazol-1-one as VDR signaling regulators” (Bioorg Med Chem, 2019).
# The source made the active and inactive calls. The calls are words filed in the database; no cut-off is given here.
# Experiments:
# [1] = molecular target: Genome polyprotein (dengue virus type 2) (UniProt P29990); test: Inhibition of Dengue virus 2 NS2B-NS3 protease
# HeLa [2] = test: Cytotoxicity against human HeLa cells measured after 24 hrs by MTT assay; format: cell-based
# [3] = molecular target: T1, Vitamin D3 receptor (Homo sapiens) (UniProt P11473); test: Activation of VDR (unknown origin) expressed in human HeLa cells measured after 24 hrs by luciferase reporter assay; format: cell-based
# T1 sequence (whole entry): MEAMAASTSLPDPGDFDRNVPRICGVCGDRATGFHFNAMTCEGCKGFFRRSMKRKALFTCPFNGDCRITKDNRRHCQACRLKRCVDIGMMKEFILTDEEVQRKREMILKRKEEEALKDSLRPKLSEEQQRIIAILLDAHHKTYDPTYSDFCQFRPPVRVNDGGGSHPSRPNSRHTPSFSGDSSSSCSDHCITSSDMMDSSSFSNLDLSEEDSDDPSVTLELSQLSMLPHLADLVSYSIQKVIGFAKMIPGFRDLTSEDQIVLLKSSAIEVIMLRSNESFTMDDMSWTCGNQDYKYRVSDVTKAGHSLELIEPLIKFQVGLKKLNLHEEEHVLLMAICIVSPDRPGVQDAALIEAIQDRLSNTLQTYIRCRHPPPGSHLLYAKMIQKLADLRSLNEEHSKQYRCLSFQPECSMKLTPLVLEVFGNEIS
# [4] = molecular target: T1, Vitamin D3 receptor (Homo sapiens); test: Modulation of VDR (unknown origin) expressed in human HeLa cells assessed as increase in calcitriol-induced response measured after 24 hrs by luciferase reporter assay; format: cell-based
# [5] = molecular target: T1, Vitamin D3 receptor (Homo sapiens); test: Modulation of VDR in human HeLa cells assessed as increase in calcitriol-induced upregulation of LC3-2 expression at 10 uM measured after 4 hrs by Western blot analysis; format: cell-based
# HeLa [6] = test: Induction of autophagy in human HeLa cells transformed with VDR shRNA assessed as effect on p62 expression at 10 uM measured after 4 hrs in presence of calcitriol by Western blot analysis; format: functional, cell-based
# [7] = molecular target: T1, Vitamin D3 receptor (Homo sapiens); test: Modulation of VDR in human HeLa cells assessed as increase in calcitriol-induced upregulation of p62 expression at 10 uM measured after 4 hrs by Western blot analysis; format: cell-based
# [8] = molecular target: T1, Vitamin D3 receptor (Homo sapiens); test: Activation of VDR in human HeLa cells assessed as up regulation of phosphorylated p65 expression at 10 uM measured after 24 hrs in the presence of calcitriol by Western blot analysis; format: cell-based
# HeLa [9] = test: Induction of autophagy in human HeLa cells transformed with VDR shRNA assessed as up regulation of LC3-2 expression at 10 uM measured after 4 hrs in presence of calcitriol by western blot analysis; format: functional, cell-based
# [10] = molecular target: T1, Vitamin D3 receptor (Homo sapiens); test: Modulation of VDR in human HeLa cells assessed as down regulation of p65 expression at 10 uM measured after 24 hrs in the presence of calcitriol by Western blot analysis; format: cell-based
# HeLa [11] = test: Induction of autophagy in human HeLa cells transformed with VDR shRNA assessed as effect on p62 expression at 10 uM measured after 4 hrs by Western blot analysis; format: functional, cell-based
# HeLa [12] = test: Induction of autophagy in human HeLa cells transformed with VDR shRNA assessed as up regulation of LC3-1 expression at 10 uM measured after 4 hrs in presence of calcitriol by Western blot analysis; format: functional, cell-based
# HeLa [13] = test: Induction of autophagy in human HeLa cells assessed as calcitriol-induced up regulation of LC3-1 expression at 10 uM measured after 4 hrs by Western blot analysis; format: functional, cell-based
# HeLa [14] = test: Up regulation of VDR expression in human HeLa cells at 10 uM measured after 4 hrs in presence of VDR shRNA by Western blot analysis; format: functional, cell-based
# [15] = molecular target: T1, Vitamin D3 receptor (Homo sapiens); test: Modulation of VDR in human HeLa cells assessed as increase in calcitriol-induced LC3-2 to LC3-1 ratio at 10 uM measured after 4 hrs by Western blot analysis; format: cell-based
# [16] = molecular target: T1, Vitamin D3 receptor (Homo sapiens); test: Modulation of VDR (unknown origin) expressed in human HeLa cells assessed as increase in calcitriol-induced response at 10 uM measured after 24 hrs by luciferase reporter assay relative to control; format: cell-based
# HeLa [17] = test: Induction of autophagy in human HeLa cells transformed with VDR shRNA assessed as increase in LC3-2 to LC3-1 ratio at 10 uM measured after 4 hrs in presence of calcitriol by Western blot analysis; format: functional, cell-based
# HeLa [18] = test: Induction of autophagy in human HeLa cells transformed with shRNA against VDR assessed as downregulation of LC3-2 expression at 10 uM measured after 4 hrs; format: functional, cell-based
Compound,Inhibition (active/not active) [1],CC10 (HeLa [2]) [µM],Activity [3],Activity [4],Activity [5],Activity (HeLa [6]),Activity [7],Activity [8],Activity (HeLa [9]),Activity [10],Activity (HeLa [11]),Activity (HeLa [12]),Activity (HeLa [13]),Activity (HeLa [14]),Activity [15],fold change (FC) [16],Activity (HeLa [17]),Activity (HeLa [18])
O=C1[C@@H]2CCCN2[C@@H](c2ccccc2)N1c1ccc([N+](=O)[O-])cc1,Active,> 10,inactive,inactive,–,–,–,–,–,–,–,–,–,–,–,–,–,–
O=C1[C@@H]2CCCN2[C@@H](c2ccccc2[N+](=O)[O-])N1c1ccc([N+](=O)[O-])cc1,inactive,> 10,inactive,inactive,–,–,–,–,–,–,–,–,–,–,–,–,–,–
O=C1[C@@H]2CCCN2[C@@H](c2cccc([N+](=O)[O-])c2)N1c1ccc([N+](=O)[O-])cc1,Active,> 10,inactive,inactive,–,–,–,–,–,–,–,–,–,–,–,–,–,–
O=C1[C@@H]2CCCN2[C@@H](Cc2ccccc2)N1c1ccc([N+](=O)[O-])cc1,Active,> 10,inactive,inactive,–,–,–,–,–,–,–,–,–,–,–,–,–,–
O=C1[C@@H]2CCCN2[C@@H](c2ccc([C@H]3N(c4ccc([N+](=O)[O-])cc4)C(=O)[C@@H]4CCCN43)cc2)N1c1ccc([N+](=O)[O-])cc1,inactive,> 10,inactive,inactive,–,–,–,–,–,–,–,–,–,–,–,–,–,–
CSCC[C@H](NC(=O)OC(C)(C)C)C(=O)Nc1ccc([C@H]2N(c3ccc([N+](=O)[O-])cc3)C(=O)[C@@H]3CCCN32)cc1,inactive,> 10,inactive,Dose-dependent effect,Active,inactive,Active,Active,Active,Active,inactive,Active,Active,Active,Active,–,–,–
O=C1[C@@H]2CCCN2[C@@H](c2ccc([N+](=O)[O-])cc2)N1c1ccc([N+](=O)[O-])cc1,Active,> 10,inactive,Dose-dependent effect,–,–,–,–,–,–,–,–,–,–,–,–,–,–
O=C1[C@@H]2CCCN2[C@@H](c2ccc(C(F)(F)F)cc2)N1c1ccc([N+](=O)[O-])cc1,Active,> 10,inactive,inactive,–,–,–,–,–,–,–,–,–,–,–,–,–,–
COc1ccc([C@H]2N(c3ccc([N+](=O)[O-])cc3)C(=O)[C@@H]3CCCN32)cc1,Active,> 10,inactive,inactive,–,–,–,–,–,–,–,–,–,–,–,–,–,–
O=C1[C@@H]2CCCN2[C@@H](c2ccco2)N1c1ccc([N+](=O)[O-])cc1,inactive,> 10,inactive,Dose-dependent effect,Active,inactive,Active,Active,Active,Active,inactive,Active,Active,inactive,–,–,–,–
COc1cc([C@H]2N(c3ccc([N+](=O)[O-])cc3)C(=O)[C@@H]3CCCN32)ccc1O,inactive,> 10,inactive,Dose-dependent effect,Active,inactive,Active,Active,Active,Active,inactive,Active,Active,inactive,–,–,–,–
CC(C)c1ccc([C@H]2N(c3ccc([N+](=O)[O-])cc3)C(=O)[C@@H]3CCCN32)cc1,Active,> 10,inactive,inactive,–,–,–,–,–,–,–,–,–,–,–,–,–,–
CSCC[C@H](N)C(=O)Oc1ccc([C@H]2N(c3ccc([N+](=O)[O-])cc3)C(=O)[C@@H]3CCCN32)cc1.Cl,inactive,> 10,inactive,Dose-dependent effect,Active,inactive,Active,Active,Active,Active,inactive,Active,Active,Active,Active,2.5 to 3,Active,–
O=C1[C@@H]2CCCN2[C@@H](c2ccc(O)cc2)N1c1ccc([N+](=O)[O-])cc1,inactive,> 10,inactive,Dose-dependent effect,–,–,–,–,–,–,–,–,–,–,–,–,–,–
O=C1[C@@H]2CCCN2[C@@H](Cc2ccc([N+](=O)[O-])cc2)N1c1ccc([N+](=O)[O-])cc1,Active,> 10,inactive,inactive,–,–,–,–,–,–,–,–,–,–,–,–,–,–
O=C1[C@@H]2CCCN2[C@@H](c2cccs2)N1c1ccc([N+](=O)[O-])cc1,inactive,> 10,inactive,inactive,–,–,–,–,–,–,–,–,–,–,–,–,–,–
O=C1[C@@H]2CCCN2[C@@H](CCC[C@H]2N(c3ccc([N+](=O)[O-])cc3)C(=O)[C@@H]3CCCN32)N1c1ccc([N+](=O)[O-])cc1,inactive,> 10,inactive,inactive,–,–,–,–,–,–,–,–,–,–,–,–,–,–
O=C1[C@@H]2CCCN2[C@@H](c2ccc(Cl)cc2)N1c1ccc([N+](=O)[O-])cc1,Active,> 10,inactive,inactive,–,–,–,–,–,–,–,–,–,–,–,–,–,–
COc1ccc(C[C@H]2N(c3ccc([N+](=O)[O-])cc3)C(=O)[C@@H]3CCCN32)cc1OC,inactive,> 10,inactive,Dose-dependent effect,Active,inactive,Active,Active,–,Active,inactive,Active,inactive,Active,Active,2.5 to 3,–,Active
